The values below come from publication PMC6331934, “Study of the Biotransformation of Tongmai Formula by Human Intestinal Flora and Its Intestinal Permeability across the Caco-2 Cell Monolayer” (Molecules, 2015).

The nature of data set [1]: Bidirectional transport across the Caco-2 cell monolayer (Papp, efflux ratio, mass balance). Particulars: human; for recovery at 90 min, 50 μM: mass balance, total amount in AP and BL sides, incubation up to 90 min, n = 3. A general note: Passage across Caco-2 layers is used to estimate intestinal permeability.
The subject of data set [2] is human intestinal flora (HIF). Kind of data set: Time course of TMF constituents during anaerobic biotransformation by human intestinal flora. Format: in vitro ADME. The following applies: for Reduction of content (fold): after 60 h incubation by HIF; for Increase of content (fold): 60 h incubation by HIF. As to the method:
(§1) The general anaerobic medium (GAM) of HIF was prepared as follows: 10.0 g of tryptone, 10.0 g of proteose peptone, 13.5 g of digested serum powder, 5.0 g of yeast extract, 2.2 g of beef extract, 1.2 g of beef liver extract powder, 3.0 g of glucose, 2.5 g of KH2PO4, 3.0 g of NaCl, 5.0 g of soluble starch, 0.3 g of L-cysteine hydrochloride, and 0.3 g of sodium thioglycolate were dissolved in H2O. Adjust the pH of GAM solution to 7.1–7.2 with 1M NaOH aqueous solution and supply the total volume to 1 L. Ten grams of fresh feces obtained from a healthy volunteer, who had not taken any medicine in three months, were immediately homogenized and suspended in GAM (50 mL) solution. The HIF was undertaken according to the previous paper of our laboratory. Preparation of the biotransformation products of TMF by HIF was followed by the method of previous research.
(§2) A biotransformation system consisting of HIF (10 mL) and TMF (10 mg) was anaerobically incubated at 37 °C. All experiments were carried out in sextuplicate at each time point. The biotransformation reaction was stopped at 0.5, 1, 2, 4, 8, 12, 24, 36, 48, 60 h. The biotransformation solution was extracted with n-butanol (each 10 mL) three times. The combined n-butanol layer was evaporated to dryness under a gentle stream of nitrogen. MeOH (400 μL) was used to dissolve the residue which acted as a deproteinization agent. The resultant solution was vortex-mixed for 1 min and centrifuged at 16,000 g for 10 min at 4 °C. The supernatant was collected and filtered through a 0.22 μm filter as the test solution. The blank sample was prepared using TMF-free medium solution with the same processing steps. […] The column temperature was set at 30 °C and detection wavelength was set at 254 nm.

The test system of another data set is Caco-2 cell monolayer. Briefly: Bidirectional transport across the Caco-2 cell monolayer (Papp, efflux ratio, mass balance). Particulars: Caco-2 monolayer; classes after ref 18.
The next data set is described as follows: in vitro. Particulars: human.
For data set [3], the system named is RAW 264.7 murine macrophages cells. Further details: method as in PMID 22644850. The following applies: RAW 264.7 cells; compared with daidzin; cited from earlier work.
Data set [4] can be described thus: Time course of TMF constituents during anaerobic biotransformation by human intestinal flora. The following applies: male, human, human intestinal flora (faecal suspension in GAM); incubation by HIF; read-out: Time of maximum concentration. Format: in vitro ADME. The method, then: as §1, §2
The mark [5] stands for this setting: Caco-2, pH 7.4, Total Recovery (%) AP→BL.
[6] abbreviates: Caco-2, pH 7.4, Total Recovery (%) BL→AP.
Where [7] appears, read: Caco-2, pH 7.4, Level (order of magnitude) of Papp, Caco-2 monolayer.
Where [8] appears, read: Caco-2, pH 7.4, Absorption class by Papp, Caco-2 monolayer, classes after ref 18.

`O=c1c(-c2ccc(O)cc2)coc2c([C@@H]3O[C@H](CO[C@@H]4OC[C@](O)(CO)[C@H]4O)[C@@H](O)[C@H](O)[C@H]3O)c(O)ccc12` [Compound 6, mirificin]: in data set [1] (Caco-2, pH 7.4), the apical-to-basolateral permeability (Papp A→B) at 90 min, 50 μM worked out at 0.29 ± 0.01 ×10⁻⁶ cm/s; the Papp B→A at 90 min, 50 μM is 0.23 ± 0.01 ×10⁻⁶ cm/s; the efflux ratio at 1 h, 50 μM came out at 0.79. Moreover, the recovery at 90 min, 50 μM in data set [1] (setting [5]) was determined as 99.4%. For the same molecule, the recovery at 90 min, 50 μM in data set [1] (setting [6]) amounted to 98.5%. Besides, in data set [2], the “Reduction of content (fold)” value is recorded as 10 fold.

As to `O=c1c(-c2ccc(O)c(O)c2)coc2c([C@@H]3O[C@H](CO[C@@H]4OC[C@](O)(CO)[C@H]4O)[C@@H](O)[C@H](O)[C@H]3O)c(O)ccc12` [Compound 3, 3′-hydroxymirificin], in data set [1] (Caco-2, pH 7.4), the apparent permeability from apical to basolateral (Papp A→B) at 90 min, 50 μM was 0.97 ± 0.01 ×10⁻⁶ cm/s; the Papp B→A at 90 min, 50 μM is 0.53 ± 0.01 ×10⁻⁶ cm/s; the efflux ratio at 1 h, 50 μM was 0.55. Moreover, the recovery at 90 min, 50 μM in data set [1] (setting [5]) is 101%. In addition, the recovery at 90 min, 50 μM in data set [1] (setting [6]) was found to be 98.3%. For the same molecule, the Content remaining in data set [2] (early stage (4 h) of incubation by HIF) is recorded as approximately 25%.

For the molecule `O=c1c(-c2ccc(O)cc2)coc2cc(O[C@@H]3O[C@H](CO)[C@@H](O)[C@H](O)[C@H]3O)ccc12` [Compound 7, daidzin], in data set [1] (Caco-2, pH 7.4), the Papp A→B at 90 min, 50 μM amounted to 0.4 ± 0.01 ×10⁻⁶ cm/s; the Papp B→A at 90 min, 50 μM was determined as 0.37 ± 0.01 ×10⁻⁶ cm/s; the apparent permeability (Papp) at 1 h, 50 μM was approximately 0.1 ×10⁻⁶ cm/s; the efflux ratio at 1 h, 50 μM is 0.92. For the same molecule, the recovery at 90 min, 50 μM in data set [1] (setting [5]) came to 99.8%. In data set [1] (setting [6]), the recovery at 90 min, 50 μM was 98.5%. In addition, in the data set with Caco-2 cell monolayer, the “Absorption class by Papp” value is “poorly absorbed”. Also, the “Reduction of content (fold)” value in data set [2] is 10 fold. In data set [2] (during the 60 h incubation by HIF), the “Conversion by HIF” value is “almost completely converted into daidzein (10)”.

In turn, `O=c1c(-c2ccc(O)cc2)coc2cc(O)ccc12` [Compound 10, daidzein] showed a Papp A→B at 90 min, 50 μM in the data set “in vitro” (Caco-2, pH 7.4) of 25.5 ± 0.34 ×10⁻⁶ cm/s. In “in vitro” (Caco-2, pH 7.4), this molecule came in with an apparent permeability from basolateral to apical (Papp B→A) at 90 min, 50 μM of 26.22 ± 0.01 ×10⁻⁶ cm/s. Further, the Papp at 1 h, 50 μM in “in vitro” (Caco-2, pH 7.4, Absorption class by Papp) was more than 10 ×10⁻⁶ cm/s; in “in vitro” (Caco-2, pH 7.4, Level (order of magnitude) of Papp), approximately 10 ×10⁻⁶ cm/s. The results for the recovery at 90 min, 50 μM in “in vitro” (setting [5]) and in “in vitro” (setting [6]) were 93.4% and 100%, respectively. For the same molecule, the “Inhibitory effect on lipopolysaccharide-induced nitric oxide production” value in data set [3] is “stronger than that of daidzin”.

As for `COc1ccc(C2=CC(=O)OC2Cc2ccc(O)cc2)c(OC2OC(CO)C(O)C(O)C2O)c1` (racemic) [Compound 8, (±)-puerol B-2″-O-glucopyranoside], in data set [1] (Caco-2, pH 7.4), the Papp A→B at 90 min, 50 μM came out at 1.29 ± 0.28 ×10⁻⁶ cm/s; the Papp B→A at 90 min, 50 μM was determined as 1.03 ± 0.09 ×10⁻⁶ cm/s; the efflux ratio at 1 h, 50 μM is 0.8. The apparent permeability coefficient (Papp) at 1 h, 50 μM in data set [1] (setting [7]) was approximately 1 ×10⁻⁶ cm/s. For the same molecule, the recovery at 90 min, 50 μM in data set [1] (setting [5]) was 77%. Further, in data set [1] (setting [6]), the recovery at 90 min, 50 μM came out at 91.4%.

Turning to `O=Cc1ccc(O)c(O)c1` [Compound 2, protocatechuic aldehyde], in data set [2] (at 60 h incubation by HIF), the Content remaining was approximately 50%.

Take `O=c1c(-c2ccc(O)cc2)coc2c([C@@H]3O[C@H](CO)[C@@H](O)[C@H](O)[C@H]3O)c(O)ccc12` [Compound 4, puerarin]: in data set [1] (Caco-2, pH 7.4), the apical-to-basolateral permeability (Papp A→B) at 90 min, 50 μM was determined as 0.68 ± 0.02 ×10⁻⁶ cm/s; the Papp B→A at 90 min, 50 μM turned out to be 0.41 ± 0.01 ×10⁻⁶ cm/s; the efflux ratio at 1 h, 50 μM was 0.6. Also, the Papp at 1 h, 50 μM in data set [1] (setting [7]) is approximately 0.1 ×10⁻⁶ cm/s. Moreover, the recovery at 90 min, 50 μM in data set [1] (setting [5]) was 96.6%. Also, the recovery at 90 min, 50 μM in data set [1] (setting [6]) worked out at 95.7%. For the same molecule, in the data set with Caco-2 cell monolayer, the “Absorption class by Papp” value is on record as “poorly absorbed”.

Consider `COc1ccc(-c2coc3cc(O)ccc3c2=O)cc1` [Compound 12, formononetin], for which the Papp A→B at 90 min, 50 μM in data set [1] (Caco-2, pH 7.4) was found to be 30.64 ± 0.07 ×10⁻⁶ cm/s. For the same molecule, the Papp B→A at 90 min, 50 μM in data set [1] (Caco-2, pH 7.4) amounted to 26.5 ± 1.1 ×10⁻⁶ cm/s. Also, the efflux ratio at 1 h, 50 μM in data set [1] (Caco-2, pH 7.4) was found to be 0.87. The results for the apparent permeability coefficient (Papp) at 1 h, 50 μM in data set [1] (setting [8]) and in data set [1] (setting [7]) were more than 10 ×10⁻⁶ cm/s and approximately 10 ×10⁻⁶ cm/s, respectively. The recovery at 90 min, 50 μM in data set [1] (setting [5]) was 102%; in data set [1] (setting [6]), 98%. For the same molecule, in data set [2], the “Increase of content (fold)” value was “more than 3 fold”.

On to `O=C1C=C(c2ccc(O)cc2O)[C@@H](Cc2ccc(O)cc2)O1` [Compound 9, puerol A], for which, in data set [1] (Caco-2, pH 7.4), the Papp A→B at 90 min, 50 μM is 6.27 ± 0.81 ×10⁻⁶ cm/s; the basolateral-to-apical permeability (Papp B→A) at 90 min, 50 μM came to 8.3 ± 1.6 ×10⁻⁶ cm/s; the efflux ratio at 1 h, 50 μM turned out to be 1.32. The Papp at 1 h, 50 μM in data set [1] (setting [7]) was approximately 1 ×10⁻⁶ cm/s. The recovery at 90 min, 50 μM in data set [1] (setting [5]) stood at 86%. Also, in data set [1] (setting [6]), the recovery at 90 min, 50 μM was 90.9%. Besides, the “Increase of content (fold)” value in data set [2] is recorded as “more than 3 fold”.

In the case of `O=c1c(-c2ccc(O)c(O)c2)coc2c(C3OC(CO)C(O)C(O)C3O)c(O)ccc12` (stereo not drawn) [Compound 1, 3′-hydroxypuerarin], in data set [1] (Caco-2, pH 7.4), the apical-to-basolateral permeability (Papp A→B) at 90 min, 50 μM stood at 0.45 ± 0.02 ×10⁻⁶ cm/s; the apparent permeability from basolateral to apical (Papp B→A) at 90 min, 50 μM came out at 0.29 ± 0.01 ×10⁻⁶ cm/s; the efflux ratio at 1 h, 50 μM is 0.64. In addition, the recovery at 90 min, 50 μM in data set [1] (setting [5]) came to 98.1%. For the same molecule, the recovery at 90 min, 50 μM in data set [1] (setting [6]) was 94.4%. Also, the Tmax in data set [4] was 2 h.

For the molecule `CC(C)NCC(O)COc1cccc2ccccc12` (stereo not drawn) [propranolol, reference compound], in data set [1] (Caco-2, pH 7.4), the Papp A→B at 1 h was 33.7 ×10⁻⁶ cm/s.

As for `COc1cc(-c2coc3c(C4OC(CO)C(O)C(O)C4O)c(O)ccc3c2=O)ccc1O` (stereo not drawn) [Compound 5, 3′-methoxypuerarin], in data set [1] (Caco-2, pH 7.4), the Papp A→B at 90 min, 50 μM was found to be 0.75 ± 0.09 ×10⁻⁶ cm/s; the Papp B→A at 90 min, 50 μM turned out to be 0.47 ± 0.03 ×10⁻⁶ cm/s; the efflux ratio at 1 h, 50 μM was determined as 0.63. The recovery at 90 min, 50 μM in data set [1] (setting [5]) turned out to be 94.6%. The recovery at 90 min, 50 μM in data set [1] (setting [6]) came to 86.2%. The molecule further had a Content remaining in data set [2] (at 60 h incubation by HIF) of approximately 50%.

Take `O=c1c(-c2ccc(O)cc2)coc2cc(O)cc(O)c12` [Compound 11, genistein]: the Papp A→B at 90 min, 50 μM in data set [1] (Caco-2, pH 7.4) stood at 32.4 ± 3.86 ×10⁻⁶ cm/s. The basolateral-to-apical permeability (Papp B→A) at 90 min, 50 μM in data set [1] (Caco-2, pH 7.4) was 37.7 ± 1.93 ×10⁻⁶ cm/s. In addition, the efflux ratio at 1 h, 50 μM in data set [1] (Caco-2, pH 7.4) was determined as 1.16. Besides, the results for the Papp at 1 h, 50 μM in data set [1] (setting [8]) and in data set [1] (setting [7]) were more than 10 ×10⁻⁶ cm/s and approximately 10 ×10⁻⁶ cm/s, respectively. Also, the figures for the recovery at 90 min, 50 μM in data set [1] (setting [5]) and in data set [1] (setting [6]) were 86.7% and 75.7%, respectively. The “Increase of content (fold)” value in data set [2] is “more than 3 fold”.

One may read the Papp A→B as how fast a substance crosses the layer from the apical side. What is called Papp B→A is how fast a substance crosses the layer from the basolateral side. By efflux ratio is commonly meant a quotient of directional permeabilities that is used to spot active efflux. Broadly, the Papp is the rate of passage across a membrane or cell layer, normalised by area and donor concentration.
